Experimental data as given in patent US11576918B2, “Pharmaceutical composition and extract of Dendrobii Caulis with eye care effect and uses of preparing the same thereof” (AMX Pharma Inc., priority 2019, dated 2023).
Where two headings read alike, the source gives them in different places.

Key:
retinal damage = conditions: absence of oxygen; recent study; cited from earlier work
optic nerve cell strains = conditions: some studies; cited from earlier work
ARPE-19 cells = assay type: cell-based; parameters: protective activity / toxic reaction: dose or concentration left out as unconfirmed; conditions: for protection effect (cell viability): 500 μM hydrogen peroxide, 24 h pre-treatment
Procedure: (§1) The present experiment took human retinal cell (ARPE-19) and rat retinal ganglion cells (RGC-5) as model cell lines. ARPE-19 cells were cultured in DMEM-F12 medium containing 10% fetal bovine serum (FBS), 0.2% sodium bicarbonate and antibiotics (penicillin 100 units/ml, streptomycin 100 μg/ml); RGC-5 were cultured in DMEM medium containing 10% fetal bovine serum (FBS) and antibiotics (penicillin 100 units/ml, streptomycin 100 μg/ml).
(§2) ARPE-19 and RGC-5 cells were seeded in 96-well plate. After 1 day, the cells were pre-treated with different concentrations of Dendrobii Caulis extract (A or A-2) or compounds 1-4 for 24 hours, and then exposed to (1) hydrogen peroxide (H2O2; 500 μM)) or (2) hypoxic environment or (3) ultraviolet (UV) irradiation (30 μJ/cm^2; three consecutive shots, for 60 seconds each with 60 second intervals, to trigger cell death. After 24-h culture, medium was removed and replaced with 10% precooled trichloroacetic acid (TCA) to fix cells at 4° C. for 1 h, then washed with ddH2O and dried. Next, 0.4% SRB 100 μl (w/v, in 1% acetic acid) was added to each well to stain the cells for 60 minutes, then washed several times with 1% acetic acid and dried plate.—The SRB in cells was dissolved in 150 μl of 10 mM Tris-HCl and measured the absorbance at 540 nm in an ELISA reader. The survival rate was calculated by comparing each treatment with the untreated control group as the 100% survival rate.

RGC-5 cells = assay type: cell-based; parameters: toxic reaction / protective activity: dose or concentration left out as unconfirmed; conditions: for protection effect (cell viability): 500 μM hydrogen peroxide, 24 h pre-treatment
Procedure: as §1, §2

zebrafish cataract = test: UVC-induced zebrafish cataract test; assay type: in vivo
Procedure: Zebrafish were randomly grouped (12 for each group) into blank control group, UVC irradiation group (300 μJ/cm^2) and UVC irradiation+treating group with A-2 at 0.495, 0.99, and 4.95 mg/ml three dosages or with compound 1 at 0.1 and 1.0 mM two dosages. The zebrafish were pre-fed with A-2 or compound 1 for one week, then subjected to UVC irradiation to observe the crystal change of the zebrafish daily. Before irradiating with UVC, the zebrafish is under anesthesia to expose only its eye to UVC (300 μJ/cm^2) for about 3 minutes, consecutively holding for seven days. The zebrafish eyes were observed every day. The severity of zebrafish cataract was scored from 1 to 3, depending on the clear level of the crystal body, in which the higher score represents the more turbidity of the crystal body. The scores are then plotted.

[1] = hydrogen peroxide and ultraviolet light
[2] = 1-10 mM, hydrogen peroxide, hypoxia or UV treatment
[3] = hydrogen peroxide, hypoxia or UV irradiation
[4] = hydrogen peroxide, hypoxia or UV treatment

## COc1cc(CCc2cc(OC)c(O)c(OC)c2)ccc1O [moscatilin]
Retinal damage
  protection of retinal damage: can protect retinal damage in the absence of oxygen
Optic nerve cell strains
  toxicity to optic nerve cell strains: toxic

## CC(C)[C@@H]1[C@H]2OC(=O)[C@@H]1[C@@H]1CC[C@@H]3CN(C)[C@H]2[C@@]31C [compound 3, dendrobine]
ARPE-19 cells; hypoxia or UV irradiation
  protection effect (cell viability): does not show enough protective activity
RGC-5 cells; hypoxia or UV irradiation
  protection effect (cell viability): does not show enough protective activity

## CC(C)(O)[C@H]1C2C(=O)OC1[C@@H](O)[C@]1(C)C2CC[C@H]1CO (stereo partly drawn) [compound 2, 2β, 3β, 11, 12-tetrahydroxypicrotoxan-3 (15)-olide]
ARPE-19 cells; [1]
  protection (cell viability): can also protect
  protective effect compared with lutein: comparable to lutein
RGC-5 cells; [1]
  protection (cell viability): can also protect
  protective effect compared with lutein: comparable to lutein

## CC(C)(O)[C@H]1C2C(=O)OC1[C@@H](O)[C@]1(C)C2CC[C@H]1COC1OC(CO)C(O)C(O)C1O (stereo partly drawn) [compound 1, 2β, 3β, 11, 12-tetrahydroxypicrotoxan-3(15)-olide 11-O-β-D-glucopyranoside]
ARPE-19 cells
  toxic reaction: no toxic reaction
ARPE-19 cells; hypoxia or UV irradiation
  protection effect (cell viability): can protect
ARPE-19 cells; [2]
  concentration dependence of protective activity: concentration-dependent protective activity
ARPE-19 cells; [3]
  protective effect compared with lutein: superior to lutein
ARPE-19 cells; [4]
  protective activity: more than 80%
RGC-5 cells
  toxic reaction: no toxic reaction
RGC-5 cells; hypoxia or UV irradiation
  protection effect (cell viability): can protect
RGC-5 cells; [2]
  concentration dependence of protective activity: concentration-dependent protective activity
RGC-5 cells; [3]
  protective effect compared with lutein: superior to lutein
RGC-5 cells; [4]
  protective activity: more than 80%
Zebrafish cataract; 1 mM, fourth day
  occurrence of UV-induced cataract: almost no cataract occurred
Zebrafish cataract; 0.1 and 1.0 mM, pre-fed one week
  occurrence of UV-induced cataract: can significantly reduce the occurrence of zebrafish cataract
